According to patent US20210213010A1, “TLR7/8 AGONISTS AND LIPOSOME COMPOSITIONS” (Torque Therapeutics, Inc., priority 2018, published 2021):
Several values for one entry are separate records, joined by “and”; a condition that tells them apart may be missing. Identical values can stand only once. Entries after “also recorded” stand apart in the source; their conditions may differ.

Columns and labels:
RAW-Blue cells = test: NF-κB induction in RAW-Blue reporter cells (RAW 264.7 macrophages, SEAP); format: cell-based; details: for EC50: RAW-Blue, sigmoidal 4PL fitting, 24 h; for Potency in the RAW-Blue cell assay: compared with R848
Excerpt: This example describes the general procedure used to assess the compounds' potency to induce NF-κB expression in RAW 264.7 macrophages cells that stably express secreted embryonic alkaline phosphatase (SEAP) upon induction of NF-κB. RAW-Blue™ reporter cells are commonly used for quantifying TLR7/8 agonist potencies in reporter cell assays. Conversely, we used RAW-Blue™ cells to evaluate the potencies of the synthesized derivatives, as previously reported^1. ^1 Ryu et al, J. Am. Chem. Soc. (2014), 136, 10823-10825
RAW 264.7 assays were carried out using RAW-Blue™ cells and QUANTI-Blue™ detection solution (Invivogen, Toulouse, France, at. #raw-sp and rep-qbs respectively). The assays carried out according to the protocol from Invivogen. RAW 264.7 macrophages were cultured in DMEM high glucose (4.5 g/L) supplemented with 10% (v/v) FBS, 1% (v/v) P/S, and Normocin™ (100 μg/ml). On the day of the study, the cells were seeded in a 96-well plate (ThermoFisher Scientific, Roskilde, Denmark) with 20 μL TLR7/8 agonist solutions per well at varying concentrations by adding 180 μL cell suspension, made by suspending cells to 0.55×10^6 cells per mL in the prepared cell medium added Zeocin™ (200 μg/ml), leading to a final concentration of 100×10^3 cells per well in triplicates. Cells were incubated with the TLR7/8 agonists, diluted from 10 mM DMSO stocks in PBS, at 37° C. with 5% CO2 for 24 h for SEAP production. 50 μL SEAP containing cell supernatant from each well was added 150 μL QUANTI-Blue™ detection solution and was incubated at 37° C. for 3-6 h. The resulting response was quantified spectrophotometrically at 640 nm and was normalized to the signal from a blank sample (DMSO dilution) run in parallel.
Half maximal effective concentration (EC50) values were determined from sigmoidal 4PL fittings from the resulting dose-response curves in GraphPad Prism.

[1] = Cryo-TEM of remote loaded liposomes (intraliposomal precipitation); format: physicochemical; details: formulation F3, drug to lipid ratio 0.1
Description: CryoTEM samples of 3 μL of liposome solution was placed on a lacy carbon 300 mesh copper TEM grid, blotted and plunge frozen in liquid ethane using a FEI Vitrobot Mark IV. Samples were imaged using a FEI Tecnai G2 20 TWIN transmission electron microscope operated at 200 keV in low dose mode with a FEI High-Sensitive (HS) 4 k×4 k Eagle camera.

mTLR7 = biological target: T1, mTLR7 (Mus musculus, UniProt P58681); test: NF-κB induction in HEK-Blue mTLR7 reporter cells; format: cell-based
T1 construct: host or cells: HEK-Blue (HEK293-derived) reporter cells
T1 sequence (P58681 27-1050): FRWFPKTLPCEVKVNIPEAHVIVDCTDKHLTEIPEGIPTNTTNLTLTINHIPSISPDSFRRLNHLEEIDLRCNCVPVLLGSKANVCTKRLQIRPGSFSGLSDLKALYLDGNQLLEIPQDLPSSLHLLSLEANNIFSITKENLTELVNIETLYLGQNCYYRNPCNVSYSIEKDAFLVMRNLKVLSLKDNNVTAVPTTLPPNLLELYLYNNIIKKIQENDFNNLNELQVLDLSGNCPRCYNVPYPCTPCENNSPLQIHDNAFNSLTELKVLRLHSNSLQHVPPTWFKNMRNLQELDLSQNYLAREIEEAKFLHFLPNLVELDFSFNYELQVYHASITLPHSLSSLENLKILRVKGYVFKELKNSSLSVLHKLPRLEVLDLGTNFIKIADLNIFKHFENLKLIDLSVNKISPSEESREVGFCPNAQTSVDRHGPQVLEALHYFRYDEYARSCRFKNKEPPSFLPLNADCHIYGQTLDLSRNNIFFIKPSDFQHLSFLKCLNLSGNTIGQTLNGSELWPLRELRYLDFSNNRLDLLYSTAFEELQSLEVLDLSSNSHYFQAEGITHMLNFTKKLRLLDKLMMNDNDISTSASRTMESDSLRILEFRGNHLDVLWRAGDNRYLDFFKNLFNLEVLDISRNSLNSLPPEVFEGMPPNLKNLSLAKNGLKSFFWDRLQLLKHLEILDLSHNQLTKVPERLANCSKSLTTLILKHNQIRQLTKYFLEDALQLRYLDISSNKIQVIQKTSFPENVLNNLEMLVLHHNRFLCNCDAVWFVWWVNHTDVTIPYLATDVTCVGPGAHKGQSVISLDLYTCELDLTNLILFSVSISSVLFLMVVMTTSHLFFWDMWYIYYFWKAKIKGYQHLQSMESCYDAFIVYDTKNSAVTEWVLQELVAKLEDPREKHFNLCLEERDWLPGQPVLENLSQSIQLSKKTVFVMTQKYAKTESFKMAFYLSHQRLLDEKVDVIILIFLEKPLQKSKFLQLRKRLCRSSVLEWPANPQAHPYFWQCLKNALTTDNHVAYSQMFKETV
Excerpt: This example describes the general procedure used to assess the compounds' potency to induce NF-κB expression in human embryonic kidney (HEK) cells. The transcription factor NF-κB is expressed upon stimulation of TLR7/8 and is commonly used for quantifying TLR7/8 agonist potencies in reporter cell assays. Conversely, we used HEK-Blue mTLR-7 cells to evaluate the potencies of the synthesized derivatives, as previously reported (Shukla et al, J. Med. Chem. (2010), 53, 4450-4465).
HEK-Blue TLR7 assays were carried out using HEK-Blue™ mTLR7 cells (Invivogen, Toulouse, France, Cat. #hkb-mtlr7). The assays were carried out according to the protocol from Invivogen. TLR expressing cells were cultured in DMEM high glucose (4.5 g/L) supplemented with 10% (v/v) fetal bovine serum (FBS) and 1% (v/v) penicillin-streptomycin (P/S) to 50 U/ml penicillin and […] streptomycin. On the day of the study, the cells were seeded in a 96-well plate (ThermoFisher Scientific, Roskilde, Denmark) with 20 μL imidazoquinoline TLR7/8 agonist solutions per well at varying concentrations by adding 180 μL cell suspension, made by suspending cells to 0.22×10^6 cells per mL in HEK-Blue™ Detection medium (Invivogen, Cat. #hb-det2) added Blasticidin (10 μg/ml) and Zeocin™ (100 μg/ml), leading to a final concentration of 40×10^3 cells per well in triplicates. Cells were incubated with the imidazoquinoline TLR7/8 agonists, formulated in liposomes or dissolved in PBS, at 37° C. with 5% CO2 for 16 h. The response was quantified spectrophotometrically at 655 nm and was normalized to the signal from a blank sample (DMSO dilution) run in parallel.

[2] = Remote loading efficiency of small molecules into liposomes (PD-10 size exclusion, HPLC); format: physicochemical; details: for Remote loading efficiency 1 h (%) / Remote loading efficiency 3 h (%): mean (SD), n = 2
In short: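 A lyophilized small-molecule powder (modified TLR agonist) was combined with liposome formulation at the desired drug/lipid ratio and stirred at elevated temperature. At 1 h and 3 h, 100 μL of mixture plus 900 μL buffer (25 mM HEPES, 10 vol % sucrose, pH 7.4) went onto a PD-10 size exclusion column. Ten 1 mL fractions were collected, and HPLC quantified compound in the liposome fractions as a percentage of the amount applied.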

[3] = formulation F3, drug/lipid ratio 0.10, 1 h
[4] = formulation F3, drug/lipid ratio 0.10, 3 h
[5] = formulation F3, drug/lipid ratio 0.25, 1 h
[6] = formulation F3, drug/lipid ratio 0.25, 3 h

CCCCc1nc2c(N)nc3ccccc3c2n1Cc1ccc(CN)cc1 [MK130, 1-(4-(aminomethyl)benzyl)-2-butyl-1H-imidazo[4,5-c]quinolin-4-amine]
EC50 (RAW-Blue cells): 30 nM
Potency in the RAW-Blue cell assay (RAW-Blue cells): the most potent compounds
Intraliposomal precipitation (Cryo-TEM) [1]: slight precipitation
TLR7 agonist activity (NF-κB induction) (mTLR7; liposomal, formulation F3): potencies much higher than R848
Remote loading efficiency 1 h (%) [2, 3]: 93.8 (5.8) %
Remote loading efficiency 3 h (%) [2, 4]: 96.7 (1.3) %
Remote loading efficiency 1 h (%) [2, 5]: 45.9 (1.9) %
Remote loading efficiency 3 h (%) [2, 6]: 48.9 (2.1) %
Remote loading efficiency 1 h (%) ([2]; formulation F3, drug/lipid ratio 0.50, 1 h): 19.7 (0.4) %
Remote loading efficiency 3 h (%) ([2]; formulation F3, drug/lipid ratio 0.50, 3 h): 20% and 19.5 (1.1) %

CCCCc1nc2c(N)nc3ccccc3c2n1Cc1ccc(CNC(=O)[C@@H](N)Cc2ccccc2)cc1 [MK138, (S)-2-amino-N-(4-((4-amino-2-butyl-1H-imidazo[4,5-c]quinolin-1-yl)methyl)benzyl)-3-phenylpropanamide]
EC50 (RAW-Blue cells): 40 nM
Potency in the RAW-Blue cell assay (RAW-Blue cells): greater potencies than R848
Intraliposomal precipitation (Cryo-TEM) [1]: precipitated to form rod-like crystals
TLR7 agonist activity (NF-κB induction) (mTLR7; free compounds, 16 h): a higher response than both MK130 and R848 at 1 μM; also recorded: only little activity was observed at concentrations <0.32 μM
TLR7 agonist activity (NF-κB induction) (mTLR7; liposomal, formulation F3): potencies much higher than R848
Remote loading efficiency 1 h (%) [2, 3]: 82.5 (1.2) % and 82.6 (1.2) %
Remote loading efficiency 3 h (%) [2, 4]: 86% and 86.2 (0.2) % and 86.2 (0.1) %
Loading efficiency ([2]; formulation F3, drug/lipid ratio 0.1, time not specified (within 3 h)): ≤ 90%
Remote loading efficiency 1 h (%) [2, 5]: 5% and 5.1 (0.1) %
Remote loading efficiency 3 h (%) [2, 6]: 0.5 (0.1) %
Remote loading efficiency 1 h (%) ([2]; formulation F4 (250 mM ammonium sulfate), drug/lipid ratio 0.10, 1 h): 96.5 (3.3) %
Remote loading efficiency 3 h (%) ([2]; formulation F4 (250 mM ammonium sulfate), drug/lipid ratio 0.10, 3 h): 100% and 100.0 (0.1) %
Remote loading efficiency 1 h (%) ([2]; formulation F4 (250 mM ammonium sulfate), drug/lipid ratio 0.25, 1 h): 93% and 93.0 (5.7) %
Remote loading efficiency 3 h (%) ([2]; formulation F4 (250 mM ammonium sulfate), drug/lipid ratio 0.25, 3 h): 96.5 (0.7) %
